ChEMBL document CHEMBL3044535, “Pharmacological profile of green tea and its polyphenols: a review” (Med Chem Res, 2012)
pIC50: −log10 of the molar value. Values after ≈ are worked out from the molar mass of the structure shown.

Columns and labels:
SK-OV-3 [1] = assay: Downregulation of cyclin D1 expression in Homo sapiens (human) SKOV3 cells at 25 uM after 48 hr by Western blot analysis relative to control; format: functional
SK-OV-3 [2] = assay: Downregulation of p21 expression in Homo sapiens (human) SKOV3 cells at 25 uM after 48 hr by Western blot analysis relative to control; format: functional
SK-OV-3 [3] = assay: Downregulation of retinoblastoma expression in Homo sapiens (human) SKOV3 cells at 25 uM after 48 hr by Western blot analysis relative to control; format: functional
SK-OV-3 [4] = assay: Downregulation of Bcl-XL expression in Homo sapiens (human) SKOV3 cells at 25 uM after 48 hr by Western blot analysis relative to control; format: functional
SH-SY5Y = assay: Neuroprotective activity in Homo sapiens (human) SH-SY5Y cells assessed as increase in non amyloidogenic soluble form of amyloid precursor protein secretion at 0.1 to 10 uM after 2 hr by immunoblot analysis relative to control; format: functional
SK-OV-3 [5] = assay: Downregulation of bax expression in Homo sapiens (human) SKOV3 cells at 25 uM after 48 hr by Western blot analysis relative to control; format: functional
PC-12 = assay: Neuroprotective activity in rat PC12 cells assessed as increase in non amyloidogenic soluble form of amyloid precursor protein secretion at 0.1 to 10 uM after 2 hr by immunoblot analysis relative to control; format: functional
SK-OV-3 [6] = assay: Downregulation of CDK4 expression in Homo sapiens (human) SKOV3 cells at 25 uM after 48 hr by Western blot analysis relative to control; format: functional
Skin epidermis [7] = assay: Antioxidant activity in Homo sapiens (human) epidermis assessed as inhibition of UV-induced hydrogen peroxide production administered before UV induction at 48 hr by DHR assay; format: functional
[8] = system: Stenotrophomonas maltophilia; assay: Antibacterial activity against Stenotrophomonas maltophilia clinical isolate by broth macrodilution method; format: functional
[9] = system: Stenotrophomonas maltophilia; assay: Bactericidal activity against Stenotrophomonas maltophilia clinical isolate; format: functional
Epidermal microsome = assay: Antioxidant activity in Homo sapiens (human) epidermal microsomal fractions assessed as inhibition of UV-induced lipid peroxidation measured at 6 to 48 hr; format: functional; conditions: Skin epidermis, dose or concentration not given here
MDA-MB-468 [10] = assay: Cytotoxicity against ER-negative Homo sapiens (human) MDA-MB-468 cells assessed as inhibition of cell viability at 5 to 80 ug/ml after 24 to 72 hr by MTT assay; format: functional
[11] = system: Stenotrophomonas maltophilia; assay: Antibacterial activity against Stenotrophomonas maltophilia clinical isolate by agar dilution method; format: functional
Dermis [12] = assay: Antioxidant activity in Homo sapiens (human) dermis assessed as inhibition of UV-induced hydrogen peroxide production administered before UV induction at 48 hr by DHR assay; format: functional
Dermis [13] = assay: Antioxidant activity in Homo sapiens (human) dermis cytosolic form assessed as inhibition of UV-induced nitric oxide production administered before UV induction at 48 hr by Griess assay; format: functional
MDA-MB-468 [14] = assay: Cytotoxicity against ER-negative Homo sapiens (human) MDA-MB-468 cells assessed as growth inhibition at 5 to 80 ug/ml after 24 to 72 hr by MTT assay; format: functional
Skin epidermis [15] = assay: Antioxidant activity in Homo sapiens (human) epidermis cytosolic form assessed as inhibition of UV-induced nitric oxide production administered before UV induction at 48 hr by Griess assay; format: functional
[16] = target: Urease subunit alpha/Urease subunit beta (Helicobacter pylori (strain ATCC 700392 / 26695) (Campylobacterpylori), UniProt P69996); assay: Inhibition of Helicobacter pylori urease; format: protein-complex assay
Sequence of Urease subunit alpha/Urease subunit beta (P69996 whole entry): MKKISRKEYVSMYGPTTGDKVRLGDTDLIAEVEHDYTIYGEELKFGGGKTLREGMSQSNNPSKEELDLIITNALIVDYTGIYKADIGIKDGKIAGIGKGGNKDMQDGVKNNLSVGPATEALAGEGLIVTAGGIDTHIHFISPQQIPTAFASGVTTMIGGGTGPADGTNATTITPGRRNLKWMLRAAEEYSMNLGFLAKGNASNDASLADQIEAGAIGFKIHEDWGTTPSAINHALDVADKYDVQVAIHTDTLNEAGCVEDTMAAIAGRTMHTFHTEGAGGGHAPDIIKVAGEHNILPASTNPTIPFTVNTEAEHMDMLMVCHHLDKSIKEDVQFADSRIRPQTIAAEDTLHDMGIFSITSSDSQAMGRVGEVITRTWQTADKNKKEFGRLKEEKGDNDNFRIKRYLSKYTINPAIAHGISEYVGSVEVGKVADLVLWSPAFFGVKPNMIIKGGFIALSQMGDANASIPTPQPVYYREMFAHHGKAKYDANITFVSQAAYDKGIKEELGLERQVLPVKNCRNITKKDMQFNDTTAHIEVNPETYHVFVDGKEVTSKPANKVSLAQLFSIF
Sequence of Urease subunit alpha/Urease subunit beta (P14916 whole entry, further chain): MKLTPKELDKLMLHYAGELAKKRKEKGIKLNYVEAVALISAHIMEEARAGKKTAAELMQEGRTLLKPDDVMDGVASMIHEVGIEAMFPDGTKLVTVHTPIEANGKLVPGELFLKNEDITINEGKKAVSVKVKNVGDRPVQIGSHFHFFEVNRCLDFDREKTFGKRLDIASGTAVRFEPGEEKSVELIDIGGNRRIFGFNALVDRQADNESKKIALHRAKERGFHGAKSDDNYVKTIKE

## O=C(O[C@@H]1Cc2c(O)cc(O)cc2O[C@@H]1c1cc(O)c(O)c(O)c1)c1cc(O)c(O)c(O)c1 [EPIGALOCATECHIN GALLATE]
SK-OV-3 [1]
  fold change (FC): >2
SK-OV-3 [2]
  fold change (FC): >2
SK-OV-3 [3]
  fold change (FC): >2
SK-OV-3 [4]
  fold change (FC): >2
SH-SY5Y
  fold change (FC): 6
SK-OV-3 [5]
  fold change (FC): >2
PC-12
  fold change (FC): 6
SK-OV-3 [6]
  fold change (FC): >2
Skin epidermis [7]
  inhibition (INH): 30%
[8]
  MIC50: 512 µg/mL (≈ 1120 µM)
  MIC90: 512 µg/mL (≈ 1120 µM)
[9]
  MIC50: 512 µg/mL (≈ 1120 µM)
  MIC90: 512 µg/mL (≈ 1120 µM)
Epidermal microsome
  inhibition: 41%
MDA-MB-468 [10]
  inhibition (INH): 3%
[11]
  MIC50: 256 µg/mL (≈ 558 µM)
  MIC90: 256 µg/mL (≈ 558 µM)
Dermis [12]
  inhibition (INH): 30%
Dermis [13]
  inhibition (INH): 30%
MDA-MB-468 [14]
  growth inhibition (GI): 15%
Skin epidermis [15]
  inhibition (INH): 30%

## Oc1cc(O)c2c(c1)O[C@H](c1ccc(O)c(O)c1)[C@@H](O)C2 [CATECHIN]
[16]
  pIC50: 4.35
